The source made the active and inactive calls. No cut-off for these calls is given here.
Tests used:
NCI-H358 [1] = assay: Antiproliferative activity against human NCI-H358 cells harboring siKRAS assessed as inhibition of cell proliferation; format: functional, cell-based
[2] = test system: GTPase KRas (Homo sapiens), P01116 [G12C]; assay: Inhibition of KRAS G12C mutant in human NCI-H358 cells assessed as decrease in ERK phosphorylation incubated for 2 to 72 hrs by Western blot analysis; format: cell-based; conditions: time 2-72 hrs
GTPase KRas (Homo sapiens), P01116 [G12C], sequence (P01116 whole entry G12C): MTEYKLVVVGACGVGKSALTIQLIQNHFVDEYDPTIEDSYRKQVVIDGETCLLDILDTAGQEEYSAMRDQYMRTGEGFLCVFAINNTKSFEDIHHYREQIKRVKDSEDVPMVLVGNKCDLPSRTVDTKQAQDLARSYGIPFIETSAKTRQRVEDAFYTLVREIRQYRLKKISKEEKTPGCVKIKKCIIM

[3] = test system: GTPase KRas (Homo sapiens), P01116 [G12C]; assay: Inhibition of KRAS G12C mutant RBD in human NCI-H358 cells incubated for 24 hrs in presence of GTP by pull-down assay; format: cell-based; conditions: dose <= 1.0 µM
NCI-H358 [4] = assay: Induction of apoptosis in human NCI-H358 cells assessed as viable cells at 0.3 uM incubated for 24 hrs by Annexin V-FITC/PI staining based flow cytometry (reference value: 91.4 %); format: functional; conditions: read-out: Activity
[5] = Volume of distribution at steady state in ICR mouse at 3 mg/kg, iv measured for 24 hrs by LC-MS/MS analysis; format: ADME, organism-based; conditions: in vivo, read-out: Vdss
[6] = test system: GTPase KRas (Homo sapiens), P01116 [G12C]; assay: Inhibition of KRAS G12C mutant in human NCI-H358 cells assessed as decrease in AKT phosphorylation upto 5 uM by Western blot analysis; format: cell-based; conditions: time 2-72 hrs, TDE = time-dependent effect
[7] = test system: GTPase KRas (Homo sapiens), P01116 [G12C]; assay: Inhibition of KRAS G12C mutant in human NCI-H358 cells assessed as decrease in ERK phosphorylation upto 5 uM by Western blot analysis; format: cell-based; conditions: time 2-72 hrs, TDE = time-dependent effect
[8] = Oral bioavailability in ICR mouse at 30 mg/kg measured for 24 hrs by LC-MS/MS analysis; format: ADME, organism-based; conditions: in vivo
NCI-H358 [9] = assay: Induction of apoptosis in human NCI-H358 cells assessed as necrotic cells at 1 uM incubated for 24 hrs by Annexin V-FITC/PI staining based flow cytometry (reference value: 1.88 %); format: functional
A549 = assay: Antiproliferative activity against human A549 cells harboring KRAS G12S mutant assessed as inhibition of cell proliferation incubated for 3 days by CCK8 assay; format: functional, cell-based; conditions: A549, 72 h
NCI-H358 [10] = assay: Inhibition of cell invasion in human NCI-H358 cells measured for 24 hrs by transwell assay; format: functional, cell-based
[11] = C0 in ICR mouse at 3 mg/kg, iv measured for 24 hrs by LC-MS/MS analysis; format: ADME, organism-based; conditions: in vivo
NCI-H358 [12] = assay: Induction of apoptosis in human NCI-H358 cells assessed as early apoptotic cells at 0.5 uM incubated for 24 hrs by Annexin V-FITC/PI staining based flow cytometry (reference value: 5.4 %); format: functional
NCI-H358 [13] = assay: Induction of apoptosis in human NCI-H358 cells assessed as viable cells at 0.1 uM incubated for 24 hrs by Annexin V-FITC/PI staining based flow cytometry (reference value: 91.4 %); format: functional; conditions: Homo sapiens, NCI-H358, read-out: Activity
NCI-H358 [14] = assay: Induction of apoptosis in human NCI-H358 cells assessed as increase in cleaved PARP level upto 5 uM incubated for 24 hrs by Western blot analysis; format: functional, cell-based
NCI-H358 [15] = assay: Induction of apoptosis in human NCI-H358 cells assessed as late apoptotic cells at 0.1 uM incubated for 24 hrs by Annexin V-FITC/PI staining based flow cytometry (reference value: 1.32 %); format: functional
NCI-H358 [16] = assay: Antiproliferative activity against human NCI-H358 cells harboring KRAS G12C/Y96D mutant assessed as inhibition of cell proliferation incubated for 48 hrs by CCK8 assay; format: functional, cell-based
NCI-H358 [17] = assay: Induction of apoptosis in human NCI-H358 cells assessed as late apoptotic cells at 1 uM incubated for 24 hrs by Annexin V-FITC/PI staining based flow cytometry (reference value: 1.32 %); format: functional
[18] = Toxicity in BALB/c-nu/nu mouse xenografted with human NCI-H358 cells assessed as morphological damage in spleen at 10 to 30 mg/kg, po qd treated for 20 days; format: organism-based; conditions: in vivo, 480 h, dose 10-30 mg/kg, time 20 day
[19] = test system: GTPase KRas (Homo sapiens), P01116 [G12C]; assay: Inhibition of KRAS G12C mutant in human […] cells assessed as decrease in ERK phosphorylation at 5 to 20 uM incubated for 4 hrs by Western blot analysis; format: cell-based; conditions: dose 5-20 µM
NCI-H358 [20] = assay: Induction of apoptosis in human NCI-H358 cells assessed as late apoptotic cells at 0.3 uM incubated for 24 hrs by Annexin V-FITC/PI staining based flow cytometry (reference value: 1.32 %); format: functional
NCI-H358 [21] = assay: Induction of apoptosis in human NCI-H358 cells assessed as increase in cleaved caspase-7 level upto 5 uM incubated for 24 hrs by Western blot analysis; format: functional, cell-based
NCI-H358 [22] = assay: Induction of apoptosis in human NCI-H358 cells assessed as viable cells at 1 uM incubated for 24 hrs by Annexin V-FITC/PI staining based flow cytometry (reference value: 91.4 %); format: functional; conditions: read-out: Activity
[23] = Toxicity in BALB/c-nu/nu mouse xenografted with human NCI-H358 cells assessed as histological change in heart at 10 to 30 mg/kg, po qd treated for 20 days by H and E staining based analysis; format: organism-based; conditions: in vivo, 480 h, dose 10-30 mg/kg, time 20 day
NCI-H1975 = assay: Antiproliferative activity against human NCI-H1975 cells harboring wild-type KRAS assessed as inhibition of cell proliferation incubated for 3 days by CCK8 assay; format: functional, cell-based; conditions: NCI-H1975, 72 h
NCI-H358 [24] = assay: In vivo inhibition of KRAS G12C mutant in human NCI-H358 cells xenografted in BALB/c-nu/nu mouse assessed as decrease in AKT phosphorylation at 10 to 30 mg/kg, po qd treated for 20 days by Western blot analysis; format: functional, organism-based; conditions: dose 10-30 mg/kg, time 20.0 day
NCI-H358 [25] = assay: Induction of apoptosis in human NCI-H358 cells assessed as early apoptotic cells at 0.3 uM incubated for 24 hrs by Annexin V-FITC/PI staining based flow cytometry (reference value: 5.4 %); format: functional
NCI-H358 [26] = assay: Antiproliferative activity against human NCI-H358 cells harboring KRAS G12C mutant assessed as inhibition of cell proliferation incubated for 3 days by CCK8 assay; format: functional, cell-based; conditions: NCI-H358, 72 h
[27] = Half life in ICR mouse at 30 mg/kg, po measured for 24 hrs by LC-MS/MS analysis; format: ADME, organism-based; conditions: in vivo
NCI-H358 [28] = assay: Antiproliferative activity against human NCI-H358 cells assessed as inhibition of cell proliferation at 0.03 uM incubated for 14 days by crystal violet staining based colony formation assay; format: functional; conditions: time 14.0 day

Question: For `C=CC(=O)N1CCN(c2nc(OC[C@@]34CCCN3C[C@H](F)C4)nc3c2cc(-c2cccc4cccc(C)c24)n3C)C[C@@H]1CC#N`, which inhibition (NCI-H358 [1]) is on record?
Answer: Active

Question: And the inhibition [2]?
Answer: Dose-Dependent Effect

Question: What about the inhibition [3] of the same molecule?
Answer: Dose-Dependent Effect

Question: And the viability at 0.3 µM (NCI-H358 [4])?
Answer: 83.2%

Question: And the Vd [5]?
Answer: 4.98 L/kg

Question: And the inhibition [6]?
Answer: Tde

Question: And the inhibition [7]?
Answer: Tde

Question: And the bioavailability [8]?
Answer: 10.4%

Question: What about the Activity (NCI-H358 [9]) of the same molecule?
Answer: 1.03%

Question: What about the IC50 (A549) of the same molecule?
Answer: 29.9 µM

Question: And the Activity (NCI-H358 [10])?
Answer: Dose-Dependent Effect

Question: What about the C0 at 24 h [11] of the same molecule?
Answer: 1960 ng/mL

Question: What about the Activity (NCI-H358 [12]) of the same molecule?
Answer: 14%

Question: What about the viability at 0.1 µM (NCI-H358 [13]) of the same molecule?
Answer: 84.6%

Question: And the Activity (NCI-H358 [14])?
Answer: Active

Question: And the Activity (NCI-H358 [15])?
Answer: 3.71%

Question: What about the inhibition (NCI-H358 [16]) of the same molecule?
Answer: Active

Question: And the Activity (NCI-H358 [17])?
Answer: 5.34%

Question: What about the Activity [18] of the same molecule?
Answer: Non-Toxic

Question: And the inhibition [19]?
Answer: Active

Question: What about the Activity (NCI-H358 [20]) of the same molecule?
Answer: 3.93%

Question: What about the Activity (NCI-H358 [21]) of the same molecule?
Answer: Active

Question: And the viability at 1 µM (NCI-H358 [22])?
Answer: 71.2%

Question: What about the Activity [23] of the same molecule?
Answer: Non-Toxic

Question: What about the IC50 (NCI-H1975) of the same molecule?
Answer: 7.91 µM

Question: What about the inhibition (NCI-H358 [24]) of the same molecule?
Answer: Active

Question: And the Activity (NCI-H358 [25])?
Answer: 11.8%

Question: And the IC50 (NCI-H358 [26])?
Answer: 0.16 µM

Question: And the half-life [27]?
Answer: 4.79 h

Question: And the inhibition (NCI-H358 [28])?
Answer: Active

— ChEMBL document CHEMBL5385858, “Identification of novel Pyrrolo[2,3-d]Pyrimidine-based KRAS G12C inhibitors with anticancer effects” (Eur J Med Chem, 2023)
